The results in this text go back to US20230085307A1, “PYRIDAZINONE COMPOUND AND HERBICIDE” (NISSAN CHEMICAL CORPORATION, priority 2019, published 2023).

The subject of experiment [1] is late watergrass. Put plainly: Test Example 1: herbicidal activity, application before weed generation under submerged conditions (Table 16, symbol A). It counts as in vivo, late watergrass (Echinochloa oryzicola). The conditions noted are these: 320 g/ha applied herbicide. An outline of the steps: (§1)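 Submerged Wagner pots (alluvial soil, 4 cm water) sown with weed seeds and planted with 2.5-leaf rice seedlings; emulsifiable concentrate diluted in water applied to water surface on sowing day. Held in greenhouse at 25-30 °C; injury scored 0-5 by herbicidal rate after three weeks.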

Experiment [2] concerns Japanese bulrush. Put plainly: Test Example 1: herbicidal activity, application before weed generation under submerged conditions (Table 16, symbol B). To be noted: 320 g/ha applied herbicide. The format is in vivo, Japanese bulrush (Schoenoplectus juncoides). An outline of the steps: as §1
Experiment [3] relates to oval-leafed pondweed. Put plainly: Test Example 1: herbicidal activity, application before weed generation under submerged conditions (Table 16, symbol C). It counts as in vivo, oval-leafed pondweed (Monochoria vaginalis). The conditions noted are these: 320 g/ha applied herbicide. The gist of the method: as §1
Experiment [4] relates to late watergrass. Put plainly: Test Example 2: herbicidal activity, application during weed generation under submerged conditions (Table 17, symbol A). The format is in vivo, late watergrass (Echinochloa oryzicola). The conditions noted are these: AAH 320 g/ha; application during weed generation, submerged conditions. An outline of the steps:
(§2)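 Steps: fill Wagner pots with alluvial soil; add water to give 4 cm depth; sow the species mixed; grow under glass at 25–30° C.; at 1–2 leaves apply water-diluted emulsion formulation to the water surface at a fixed herbicide amount; score after 3 weeks.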

Experiment [5] has as its system Japanese bulrush. Kind of experiment: Test Example 2: herbicidal activity, application during weed generation under submerged conditions (Table 17, symbol B). It counts as in vivo, Japanese bulrush (Schoenoplectus juncoides). To be noted: AAH 320 g/ha; application during weed generation, submerged conditions. The gist of the method:
as §2

Experiment [6] concerns oval-leafed pondweed. Put plainly: Test Example 2: herbicidal activity, application during weed generation under submerged conditions (Table 17, symbol C). The format is in vivo, oval-leafed pondweed (Monochoria vaginalis). The conditions noted are these: AAH 320 g/ha; application during weed generation, submerged conditions. An outline of the steps:
as §2

The subject of a further experiment is barnyard grass. Kind of experiment: Test Example 3: herbicidal effect by foliage application, Wagner pot (Table 18, symbol H). The format is in vivo, barnyard grass (Echinochloa crus-galli). The conditions noted are these: 320 g/ha. An outline of the steps:
(§3)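 Plants were sown in alluvial soil held under 0.1–0.5 cm standing water and grown 14 days in a greenhouse at 25–30 °C. An emulsifiable formulation, water-diluted to the set dose, was then sprayed onto the foliage, and effects were scored three weeks later using previously defined criteria.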

A further experiment concerns Chinese sprangletop. Kind of experiment: Test Example 3: herbicidal effect by foliage application, Wagner pot (Table 18, symbol D). The format is in vivo, chinese sprangletop (Leptochloa chinensis). The conditions noted are these: 320 g/ha. An outline of the steps: as §3
For a further experiment, the system named is rice flat sedge. Kind of experiment: Test Example 3: herbicidal effect by foliage application, Wagner pot (Table 18, symbol E). It counts as in vivo, rice flat sedge (Cyperus iria). To be noted: 320 g/ha. The gist of the method: as §3

Consider `C=CCCOc1ccc(-c2sc3ccccc3c2-c2c(O)c(C)nn(C)c2=O)cc1` [1-207], for which the “Herbicidal effect on A: late watergrass (grade 0-5)” value with late watergrass [1] is given as 5 (Herbicidal rate of 90% or more (almost completely withered)). Further, in the experiment with Japanese bulrush [2], the “Herbicidal effect on B: Japanese bulrush (grade 0-5)” value is on record as 5 (Herbicidal rate of 90% or more (almost completely withered)). Besides, the “Herbicidal effect on C: oval-leafed pondweed (grade 0-5)” value with oval-leafed pondweed [3] was 5 (Herbicidal rate of 90% or more (almost completely withered)). Also, the “herbicidal effect rating, A: late watergrass” value in the experiment with late watergrass [4] is reported as 5 (Herbicidal rate of 90% or more (almost completely withered)). Moreover, the “herbicidal effect rating, B: Japanese bulrush” value in the experiment on Japanese bulrush [5] was 4 (Herbicidal rate of 70% or more and less than 90%). Moreover, the “herbicidal effect rating, C: oval-leafed pondweed” value in the experiment with oval-leafed pondweed [6] was 5 (Herbicidal rate of 90% or more (almost completely withered)). For the same compound, in the experiment on barnyard grass, the “herbicidal effect on H (barnyard grass), rating 0-5” value was 5 (Herbicidal rate of 90% or more (almost completely withered)). In addition, in the experiment on Chinese sprangletop, the “herbicidal effect on D (Chinese sprangletop), rating 0-5” value was 5 (Herbicidal rate of 90% or more (almost completely withered)). Besides, the “herbicidal effect on E (rice flat sedge), rating 0-5” value in the experiment with rice flat sedge was 4 (Herbicidal rate of 70% or more and less than 90%).

As for `Cc1nn(C)c(=O)c(-c2c(-c3ccc(OCCOCCCl)cc3)sc3ccccc23)c1O` [1-227], the “Herbicidal effect on A: late watergrass (grade 0-5)” value in the experiment with late watergrass [1] is given as 5 (Herbicidal rate of 90% or more (almost completely withered)). In addition, in the experiment on Japanese bulrush [2], the “Herbicidal effect on B: Japanese bulrush (grade 0-5)” value is given as 5 (Herbicidal rate of 90% or more (almost completely withered)). For the same compound, the “Herbicidal effect on C: oval-leafed pondweed (grade 0-5)” value with oval-leafed pondweed [3] is on record as 5 (Herbicidal rate of 90% or more (almost completely withered)). Besides, in the experiment on late watergrass [4], the “herbicidal effect rating, A: late watergrass” value was 4 (Herbicidal rate of 70% or more and less than 90%). Also, the “herbicidal effect rating, B: Japanese bulrush” value with Japanese bulrush [5] is 3 (Herbicidal rate of 40% or more and less than 70%). For the same compound, in the experiment on oval-leafed pondweed [6], the “herbicidal effect rating, C: oval-leafed pondweed” value is 3 (Herbicidal rate of 40% or more and less than 70%). The “herbicidal effect on H (barnyard grass), rating 0-5” value with barnyard grass was 5 (Herbicidal rate of 90% or more (almost completely withered)). In addition, the “herbicidal effect on D (Chinese sprangletop), rating 0-5” value with Chinese sprangletop is 4 (Herbicidal rate of 70% or more and less than 90%). For the same compound, the “herbicidal effect on E (rice flat sedge), rating 0-5” value in the experiment with rice flat sedge was 4 (Herbicidal rate of 70% or more and less than 90%).
